The source of these data is ChEMBL document CHEMBL1141059, “3-(2-Aminoethyl)pyridine analogs as alpha4beta2 nicotinic cholinergic receptor ligands” (Bioorg Med Chem Lett, 2005).

This experiment deals with Neuronal acetylcholine receptor; alpha4/beta2 (Rattus norvegicus, UniProt P09483+P12390). Briefly: Binding affinity for rat brain Nicotinic acetylcholine receptor alpha4-beta2 using [3H]S-(-)-nicotine.

SMILES strings stand for the structures.

Neuronal acetylcholine receptor; alpha4/beta2, sequence (P09483 whole entry): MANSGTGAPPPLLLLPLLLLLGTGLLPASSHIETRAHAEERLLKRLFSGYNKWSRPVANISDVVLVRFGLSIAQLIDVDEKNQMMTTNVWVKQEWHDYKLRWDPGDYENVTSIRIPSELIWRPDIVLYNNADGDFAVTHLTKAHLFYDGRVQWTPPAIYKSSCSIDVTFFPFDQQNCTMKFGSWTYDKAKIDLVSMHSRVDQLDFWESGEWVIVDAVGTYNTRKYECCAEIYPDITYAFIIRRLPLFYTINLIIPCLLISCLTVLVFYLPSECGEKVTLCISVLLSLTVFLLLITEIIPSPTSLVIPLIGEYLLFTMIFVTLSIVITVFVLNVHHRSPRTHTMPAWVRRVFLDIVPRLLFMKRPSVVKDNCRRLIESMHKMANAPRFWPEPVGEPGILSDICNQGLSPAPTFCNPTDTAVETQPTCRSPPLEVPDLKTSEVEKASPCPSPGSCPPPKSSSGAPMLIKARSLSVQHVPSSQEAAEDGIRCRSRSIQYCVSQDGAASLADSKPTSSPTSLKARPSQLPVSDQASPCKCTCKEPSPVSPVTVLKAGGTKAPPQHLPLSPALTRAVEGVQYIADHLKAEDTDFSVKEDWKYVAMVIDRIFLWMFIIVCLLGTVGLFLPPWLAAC
Neuronal acetylcholine receptor; alpha4/beta2, sequence (P12390 whole entry): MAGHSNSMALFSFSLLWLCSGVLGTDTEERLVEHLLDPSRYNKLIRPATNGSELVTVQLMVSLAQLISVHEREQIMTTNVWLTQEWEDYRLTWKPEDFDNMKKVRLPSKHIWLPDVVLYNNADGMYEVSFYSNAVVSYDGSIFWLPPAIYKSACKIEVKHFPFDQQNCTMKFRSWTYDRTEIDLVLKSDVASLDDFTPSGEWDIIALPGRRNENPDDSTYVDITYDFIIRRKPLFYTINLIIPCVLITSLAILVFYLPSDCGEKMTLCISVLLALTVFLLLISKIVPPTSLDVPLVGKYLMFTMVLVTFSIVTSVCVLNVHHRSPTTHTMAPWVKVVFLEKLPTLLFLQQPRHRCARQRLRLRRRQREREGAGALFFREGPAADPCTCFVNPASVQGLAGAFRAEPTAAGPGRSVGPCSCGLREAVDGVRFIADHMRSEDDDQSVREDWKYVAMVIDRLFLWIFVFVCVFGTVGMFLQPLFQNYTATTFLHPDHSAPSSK

The term Ki denotes a measure of affinity in units of concentration, obtained from inhibition or displacement. Read a high Ki as lower affinity. `CCN(C)CCc1ccc(CCc2ccc(Cl)cc2)nc1` showed a Ki above 10 µM.
The value for `CCN(C)CCc1cnccc1OC` was 1.84 µM; that for `CCN(C)CCc1cnccc1N` was above 10 µM.
Compound `CCN(C)CCc1cncc(OC)c1` yielded a Ki of 0.019 µM.
Next, `CCN(C)CCc1ccc(CCc2ccc(OC)cc2)nc1`: above 10 µM; `CCN(C)CCc1ccc(Br)nc1`: 0.083 µM; `CCN(C)CCc1ccc(C)nc1`: 0.24 µM.
`CCN(C)CCc1cncc(Cl)c1` registered a Ki of 0.31 µM.
The value for `CCN(C)CCc1cncc(Br)c1` was 0.36 µM; that for `CCN(C)CCc1cncc(C)c1` was 0.37 µM.
Next, `CCN(C)CCc1ccc(Cl)nc1`: 0.07 µM.
